Results on one compound are retold here after US10233144B2, “Crystalline form of AHU377, preparation method and use thereof” (CRYSTAL PHARMATECH CO., LTD., priority 2015, dated 2019).

This series can be described thus: Hygroscopicity assessment by dynamic vapor sorption (DVS). To be noted: 25° C.; for weight gain under 80% RH: DVS, 10 mg sample. The format is physicochemical. On the procedure:
Dynamic Vapor Sorption (DVS) was measured via a SMS (Surface Measurement Systems) DVS Intrinsic. Typical Parameters for DVS test are listed below. Temperature: 25° C. Gas and flow rate: N2, 200 mL/min dm/dt: 0.002%/min RH range: 0% RH to 95% RH 10 mg of crystalline Form I of the present disclosure was tested using dynamic vapor sorption (DVS). 4. The DVS isotherm plot of crystalline Form I is depicted in FIG. 4. About hygroscopicity characterization description and definition of hygroscopicity (Chinese Pharmacopoeia 2010 edition appendix XIX J Drug hygroscopic test guidelines, test at 25° C.±1° C., 80% Relative Humidity) • deliquescent: sufficient water is absorbed to form a liquid; • very hygroscopic: increase in mass is equal to or greater than 15 percent; • hygroscopic: increase in mass is less than 15 percent and equal to or greater than 2 percent; • slightly hygroscopic: increase in mass is less than 2 percent and equal to or greater than 0.2 percent. • no or almost no hygroscopic: increase in mass is less than 0.2 percent

With `CCOC(=O)[C@H](C)C[C@@H](Cc1ccc(-c2ccccc2)cc1)NC(=O)CCC(=O)O` [Crystalline Form I of AHU377, (2R,4S)-5-(Biphenyl-4-yl)-4-[(3-carboxypropionyl)amino]-2-methylpentanoic acid ethyl ester], the “weight gain under 80% RH” value came to 0.35%. For the same compound, the “hygroscopicity (class according to hygroscopic test guidelines)” value (Chinese Pharmacopoeia 2010 appendix XIX J, 80% Relative Humidity) was “slightly hygroscopic (increase in mass is less than 2 percent and equal to or greater than 0.2 percent)”. Moreover, where the note is “listed as crystalline Form I”, the “weight gain under 80% RH” value was 0.35%.
